The source of these data is US9375435B2, “Use of a DNA expression construct” (MOLOGEN AG, priority 2010, dated 2016).

Molecules are shown by their SMILES.

Experiment [1] has as its system A375 melanoma xenotransplanted-tumours. Nature of the experiment: Chemo-sensitization of xenotransplanted tumours, intratumoral jet injection. In kind it is in vivo. The settings on record: twice 150 μg DNA construct, twice 0.5 mg/kg vindesine where indicated. On the procedure: A) In vitro chemo-sensitization assay results. B) Chemo-sensitization of A375 melanoma xenotransplanted tumors.
The intratumoral jet injection was performed using twice 150 μg of the dumbbell-shaped DNA construct and where indicated additionally twice 0.5 mg/kg tumour vindesine.
On the y-axis is the median of the relative tumour volume shown for the indicated days after transfer (x-axis).

The test system of a further experiment is A375 melanoma cells. The conditions noted are these: vindesine 12.8 μg per ml.

Excerpt for A375 melanoma cells: In further experiments the effect of TNF-α expression on cell vitality and tumour volume was investigated.

Consider `CC[C@]1(O)C[C@@H]2CN(CCc3c([nH]c4ccccc34)[C@@](C(=O)OC)(c3cc4c(cc3OC)N(C)[C@H]3[C@@](O)(C(N)=O)[C@H](O)[C@]5(CC)C=CCN6CC[C@]43[C@@H]65)C2)C1` [vindesine], for which, in experiment [1], the “median of the relative tumour volume” value is given as “reduces the average tumour volume”. In the experiment on A375 melanoma cells, this molecule registered a relative cell vitality of 0.6.
